Laboratory results reported in ChEMBL document CHEMBL4020807, “Synthesis of resveratrol derivatives as new analgesic drugs through desensitization of the TRPA1 receptor” (Bioorg Med Chem Lett, 2017).
The source made the active and inactive calls. No cut-off for these calls is given here.

Experiments:
[1] = biological target: T1, Transient receptor potential cation channel subfamily A member 1 (Homo sapiens, UniProt O75762); experiment: Inhibition of human TRPA1 expressed in HEK293 cells assessed as decrease in AITC-induced calcium influx at 10 uM preincubated for 6 mins followed by AITC addition measured for 1 min by Fluo-4 dye-based assay relative to control; type: cell-based
[2] = biological target: T1, Transient receptor potential cation channel subfamily A member 1; experiment: Inhibition of human TRPA1 expressed in HEK293 cells assessed as decrease in AITC-induced calcium influx at 30 uM preincubated for 6 mins followed by AITC addition measured for 1 min by Fluo-4 dye-based assay relative to resveratrol; type: cell-based
[3] = biological target: T1, Transient receptor potential cation channel subfamily A member 1; experiment: Agonist activity at human TRPA1 expressed in HEK293 cells assessed as induction of calcium influx at 30 uM after 6 mins by Fluo-4 dye-based assay; type: cell-based
[4] = biological target: T1, Transient receptor potential cation channel subfamily A member 1; experiment: Inhibition of human TRPA1 expressed in HEK293 cells assessed as decrease in AITC-induced calcium influx preincubated for 6 mins followed by AITC addition measured for 1 min by Fluo-4 dye-based assay; type: cell-based
[5] = biological target: T1, Transient receptor potential cation channel subfamily A member 1; experiment: Agonist activity at human TRPA1 expressed in HEK293 cells assessed as induction of calcium influx at 30 uM after 6 mins by Fluo-4 dye-based assay relative to AITC; type: cell-based; settings: hek293, 0.1 h
[6] = biological target: T1, Transient receptor potential cation channel subfamily A member 1; experiment: Inhibition of human TRPA1 expressed in HEK293 cells assessed as decrease in AITC-induced calcium influx at 30 uM preincubated for 6 mins followed by AITC addition measured for 1 min by Fluo-4 dye-based assay relative to control; type: cell-based
[7] = biological target: T2, Transient receptor potential cation channel subfamily A member 1 (Rattus norvegicus, UniProt Q6RI86); experiment: Activation of TRPA1 in Sprague-Dawley rat DRG neuron assessed as induction of current response at -60 mV holding potential at 300 uM incubated for 30 secs by whole-cell patch-clamp assay; settings: 0.5 min
[8] = biological target: T2, Transient receptor potential cation channel subfamily A member 1; experiment: Activation of TRPA1 in Sprague-Dawley rat DRG neuron assessed as induction of current response at -60 mV holding potential at 1 uM incubated for 30 secs by whole-cell patch-clamp assay; settings: 0.5 min
[9] = biological target: T1, Transient receptor potential cation channel subfamily A member 1; experiment: Inhibition of TRPA1 (unknown origin)
HEK293 = experiment: Induction of current response in HEK293 cells at 10 uM by whole-cell patch-clamp assay; type: cell-based; settings: human, hek293, 10 µM
[10] = biological target: T1, Transient receptor potential cation channel subfamily A member 1; experiment: Desensitization of human TRPA1 expressed in HEK293 cells assessed as decrease in AITC-induced inward current response at -60 mV holding potential preincubated for 1 min followed by AITC induction for 1 min by whole-cell patch-clamp assay; type: cell-based
[11] = biological target: T1, Transient receptor potential cation channel subfamily A member 1; experiment: Agonist activity at human TRPA1 expressed in HEK293 cells assessed as induction of inward current response by whole-cell patch-clamp assay; type: cell-based
[12] = biological target: T1, Transient receptor potential cation channel subfamily A member 1; experiment: Agonist activity at human TRPA1 expressed in HEK293 cells assessed as induction of inward current response at 10 uM in presence of TRPA1 antagonist HC-030031 by whole-cell patch-clamp assay; type: cell-based; settings: hek293, 10 µM
[13] = biological target: T1, Transient receptor potential cation channel subfamily A member 1; experiment: Activation of human TRPA1 expressed in HEK293 cells assessed as induction of inward current response at -60 mV holding potential at 5 uM incubated for 1 min by whole-cell patch-clamp assay; type: cell-based; settings: hek293, 1 min
Rattus norvegicus [14] = experiment: Antinociceptive activity in Sprague-Dawley rat assessed as decrease in paw-licking time at 2 mM administered intraplantarly for 5 mins followed by AITC addition measured for 5 mins; type: functional
Rattus norvegicus [15] = experiment: Induction of nocifensive behavior in Sprague-Dawley rat at 2 mM administered intraplantarly for 5 mins; settings: in vivo, other, 2000 µM
[16] = biological target: T2, Transient receptor potential cation channel subfamily A member 1; experiment: Activation of TRPA1 in Sprague-Dawley rat DRG neuron assessed as induction of current response at -60 mV holding potential at 30 uM incubated for 30 secs by whole-cell patch-clamp assay; settings: 0.5 min
[17] = biological target: T1, Transient receptor potential cation channel subfamily A member 1; experiment: Inhibition of human TRPA1 expressed in HEK293 cells assessed as decrease in AITC-induced calcium influx at 3 uM preincubated for 6 mins followed by AITC addition measured for 1 min by Fluo-4 dye-based assay relative to control; type: cell-based
[18] = biological target: T1, Transient receptor potential cation channel subfamily A member 1; experiment: Inhibition of human TRPA1 expressed in HEK293 cells assessed as decrease in AITC-induced current response by whole cell patch clamp method; type: cell-based

T2 sequence (Q6RI86 whole entry): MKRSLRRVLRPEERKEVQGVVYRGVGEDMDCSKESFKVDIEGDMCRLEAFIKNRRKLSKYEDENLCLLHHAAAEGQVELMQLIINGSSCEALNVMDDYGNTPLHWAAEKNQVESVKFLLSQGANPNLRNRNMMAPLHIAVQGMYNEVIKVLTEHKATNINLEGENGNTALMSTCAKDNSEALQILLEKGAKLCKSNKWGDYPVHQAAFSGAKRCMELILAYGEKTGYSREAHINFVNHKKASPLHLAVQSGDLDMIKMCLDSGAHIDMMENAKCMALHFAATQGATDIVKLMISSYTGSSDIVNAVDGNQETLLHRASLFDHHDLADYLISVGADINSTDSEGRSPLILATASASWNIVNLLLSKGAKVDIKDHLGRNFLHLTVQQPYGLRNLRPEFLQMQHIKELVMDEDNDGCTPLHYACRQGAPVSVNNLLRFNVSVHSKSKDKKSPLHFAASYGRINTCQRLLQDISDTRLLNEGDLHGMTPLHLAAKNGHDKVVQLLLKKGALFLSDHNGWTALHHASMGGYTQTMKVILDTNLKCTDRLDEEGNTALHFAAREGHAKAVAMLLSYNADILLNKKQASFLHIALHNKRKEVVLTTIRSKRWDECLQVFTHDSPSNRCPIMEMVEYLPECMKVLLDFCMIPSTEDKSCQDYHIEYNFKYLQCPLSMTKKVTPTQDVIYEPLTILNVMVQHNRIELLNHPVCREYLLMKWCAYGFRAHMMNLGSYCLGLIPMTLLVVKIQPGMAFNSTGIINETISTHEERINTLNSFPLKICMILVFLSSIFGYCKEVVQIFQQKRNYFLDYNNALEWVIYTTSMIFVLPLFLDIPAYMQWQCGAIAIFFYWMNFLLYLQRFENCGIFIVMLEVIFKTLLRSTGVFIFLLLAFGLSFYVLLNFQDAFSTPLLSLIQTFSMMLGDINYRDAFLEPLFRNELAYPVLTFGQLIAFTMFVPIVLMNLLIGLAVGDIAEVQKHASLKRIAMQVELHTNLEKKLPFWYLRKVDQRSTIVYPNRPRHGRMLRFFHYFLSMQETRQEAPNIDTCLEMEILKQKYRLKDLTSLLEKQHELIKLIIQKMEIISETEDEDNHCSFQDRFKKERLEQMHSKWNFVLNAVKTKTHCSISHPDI
T1 sequence (O75762 whole entry): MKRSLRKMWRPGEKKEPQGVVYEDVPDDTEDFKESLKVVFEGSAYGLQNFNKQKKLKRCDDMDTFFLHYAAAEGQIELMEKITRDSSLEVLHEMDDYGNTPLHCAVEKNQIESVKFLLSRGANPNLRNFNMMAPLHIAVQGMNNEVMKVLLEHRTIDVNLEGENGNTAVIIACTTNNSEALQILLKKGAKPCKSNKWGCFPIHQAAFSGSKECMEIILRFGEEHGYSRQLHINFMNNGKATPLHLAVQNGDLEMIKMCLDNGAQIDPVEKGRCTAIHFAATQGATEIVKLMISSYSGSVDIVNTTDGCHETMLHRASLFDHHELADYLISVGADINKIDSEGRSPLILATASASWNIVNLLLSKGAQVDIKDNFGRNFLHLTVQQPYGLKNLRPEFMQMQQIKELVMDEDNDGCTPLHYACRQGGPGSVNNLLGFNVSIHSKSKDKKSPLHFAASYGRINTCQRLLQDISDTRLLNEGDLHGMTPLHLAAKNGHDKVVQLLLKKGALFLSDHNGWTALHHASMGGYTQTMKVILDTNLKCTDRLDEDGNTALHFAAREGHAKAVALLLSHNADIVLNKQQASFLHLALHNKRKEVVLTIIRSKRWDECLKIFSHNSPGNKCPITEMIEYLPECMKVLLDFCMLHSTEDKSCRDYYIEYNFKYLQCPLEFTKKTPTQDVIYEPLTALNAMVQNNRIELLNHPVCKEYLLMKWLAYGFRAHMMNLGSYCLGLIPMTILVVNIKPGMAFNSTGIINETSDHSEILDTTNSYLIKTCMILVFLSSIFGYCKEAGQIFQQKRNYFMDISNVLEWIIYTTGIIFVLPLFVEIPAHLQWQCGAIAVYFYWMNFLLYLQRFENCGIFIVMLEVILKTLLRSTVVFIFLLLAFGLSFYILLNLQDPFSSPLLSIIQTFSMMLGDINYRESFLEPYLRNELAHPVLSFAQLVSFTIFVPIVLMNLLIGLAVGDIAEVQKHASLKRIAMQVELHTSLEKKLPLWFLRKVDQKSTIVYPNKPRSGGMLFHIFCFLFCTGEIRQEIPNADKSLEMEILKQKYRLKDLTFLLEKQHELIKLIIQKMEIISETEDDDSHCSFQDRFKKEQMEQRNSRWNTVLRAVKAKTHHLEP

Work on `Clc1cc(Cl)cc(/C=C/c2ccccc2)c1` yielded an inhibition [1] of 6.2%, a fold change (FC) [2] of 0.7 and an EC50 [3] greater than 30 µM. For the same compound, the IC50 [4] was greater than 30 µM, the “fold change (FC)” value [5] was 0.3 and the inhibition [6] was 8.4%.

In the case of `Oc1cc(O)cc(/C=C/c2ccc(OCC3CCCCC3)cc2)c1`, the fold change (FC) [2] is reported as -0.1 and the “fold change (FC)” value [5] is reported as 0.4.

`C=CCN=C=S` [ALLYL ISOTHIOCYANATE] was tested, and the Activity [7] was “Active”.

For `COc1cc(O)cc(/C=C/c2ccccc2)c1` [PINOSYLVIN METHYL ETHER], the fold change (FC) [2] was 0.6 and the “fold change (FC)” value [5] was 0.7.

With `COc1cc(CNC(=O)CCCC/C=C/C(C)C)ccc1O` [CAPSAICIN] the Activity [8] was “Active”.

With `COc1ccccc1/C=C/c1ccccc1` the IC50 [9] was 1700 to 2200 nM, the fold change (FC) [2] was 0.3 and the “fold change (FC)” value [5] was 0.4.

For `Oc1ccc(/C=C/c2cc(Br)c(O)c(Br)c2)cc1`, the Activity (HEK293) was “Non-Toxic”, the Activity [10] was “Dose-dependent effect” and the Activity [11] was “Not Active”. For the same compound, the Activity [12] was “Dose-dependent effect”, the Activity [13] was “Active” and the inhibition [1] was 37.3%. For the same compound, the fold change (FC) [2] was 1.4, the Activity (Rattus norvegicus [14]) was “Active” and the EC50 [3] was greater than 10 µM. For the same compound, the Activity (Rattus norvegicus [15]) was “Non-Toxic”, the Activity [16] was “Active” and the IC50 [4] was 16.1 µM. For the same compound, the “fold change (FC)” value [5] was 0.5, the inhibition [17] was 14% and the inhibition [6] was 66.7%.

Compound `Oc1ccc(/C=C/c2cc(O)cc(O)c2)cc1` [RESVERATROL] has an IC50 [18] of 750 nM, an inhibition [1] of 2.5% and an EC50 [3] greater than 30 µM. The IC50 [4] was greater than 30 µM, the “fold change (FC)” value [5] was 0.4 and the inhibition [17] was -3.8%. The inhibition [6] was 37.5%.

With `Clc1ccc(/C=C/c2ccccc2)cc1` the fold change (FC) [2] was -0.2 and the “fold change (FC)” value [5] was 0.3.

For `O=C(Nc1ccc(O)cc1)c1cc(O)cc(O)c1`, the fold change (FC) [2] was -0.6 and the “fold change (FC)” value [5] was 0.3.

In the case of `Oc1ccccc1/C=C/c1ccccc1`, the IC50 [9] is reported as 1700 to 2200 nM, the inhibition [1] is reported as -5% and the fold change (FC) [2] is reported as 1.1. For the same compound, the EC50 [3] was greater than 10 µM, the IC50 [4] was greater than 30 µM and the “fold change (FC)” value [5] was 0.6. It also gave an inhibition [17] of -1.9% and an inhibition [6] of -9.5%.

With `CC(=O)Oc1ccc(/C=C/c2cc(OC(C)=O)cc(OC(C)=O)c2)cc1` [TRIACETYLRESVERATROL] the fold change (FC) [2] was 0.5 and the “fold change (FC)” value [5] was 0.5.

For `CCCCCCOc1ccc(/C=C/c2cc(O)cc(O)c2)cc1`, the fold change (FC) [2] was 0.1 and the “fold change (FC)” value [5] was 0.5.

`Oc1cc(O)cc(/C=C/C2CCCCC2)c1` was tested, and the fold change (FC) [2] was 0.5 and the “fold change (FC)” value [5] was 0.3.

With `Oc1ccc(/C=C/c2ccc(O)c(O)c2)cc1` the fold change (FC) [2] was -0.3 and the “fold change (FC)” value [5] was 0.4.

For `Oc1cc(O)cc(/C=C/c2ccc(O)c(O)c2)c1` [PICEATANNOL], the fold change (FC) [2] was 0 and the “fold change (FC)” value [5] was 0.3.

In the case of `Oc1cc(O)cc(/C=C/c2ccc3c(c2)OCO3)c1`, the fold change (FC) [2] is reported as 0.6 and the “fold change (FC)” value [5] is reported as 0.3.

For `Oc1cc(O)cc(/C=C/c2ccc(OCc3ccccc3)cc2)c1`, the fold change (FC) [2] was 0.7 and the “fold change (FC)” value [5] was 0.3.

In the case of `COc1ccc(/C=C/c2cc(OC)cc(OC)c2)cc1` [TRISMETHOXYRESVERATROL], the fold change (FC) [2] is reported as 0.3 and the “fold change (FC)” value [5] is reported as 0.3.

In the case of `Oc1ccc(/C=C/c2ccccc2)cc1` [(E)-4-STYRYLPHENOL], the fold change (FC) [2] is reported as 0.1 and the “fold change (FC)” value [5] is reported as 0.4.

With `Oc1cc(O)cc(/C=C/c2cc(O)c(O)c(O)c2)c1` the fold change (FC) [2] was 0.4 and the “fold change (FC)” value [5] was 0.3.

`Oc1cc(O)cc(/C=C/c2ccccc2)c1` [PINOSYLVIN] was tested, and the fold change (FC) [2] was -0.1 and the “fold change (FC)” value [5] was 0.4.

With `Oc1ccc(-c2cc(O)cc(O)c2)cc1` the fold change (FC) [2] was 0.8 and the “fold change (FC)” value [5] was 0.5.

For `COc1cc(/C=C/c2ccccc2)cc(OC)c1` [3,5-O-DIMETHYLPINOSYLVIN], the fold change (FC) [2] was 0.5 and the “fold change (FC)” value [5] was 0.6.

For `Oc1cc(O)cc(/C=C/c2cccc3ccccc23)c1`, the fold change (FC) [2] was 1.1 and the “fold change (FC)” value [5] was 0.3.

`Oc1cc(O)cc(/C=C/c2ccccc2O)c1` was tested, and the fold change (FC) [2] was 0.6 and the “fold change (FC)” value [5] was 0.4.

Compound `COc1ccc(/C=C/c2cc(O)cc(O)c2)cc1OC` [RHAPONTIGENIN] has a fold change (FC) [2] of 0.4.

`CC(C)(C)/C=C/c1cc(O)cc(O)c1` was tested, and the fold change (FC) [2] was 0.8 and the “fold change (FC)” value [5] was 0.3.

Work on `Oc1cc(O)cc(/C=C/c2ccc(Cl)cc2)c1` yielded an inhibition [1] of 5.6%, a fold change (FC) [2] of 0.5 and an EC50 [3] greater than 30 µM. The IC50 [4] was greater than 30 µM, the “fold change (FC)” value [5] was 0.3 and the inhibition [17] was 6.1%. It also gave an inhibition [6] of 18.6%.

`CCCOc1ccc(/C=C/c2cc(OCCC)cc(OCCC)c2)cc1` was tested, and the fold change (FC) [2] was -0.1 and the “fold change (FC)” value [5] was 0.3.

In the case of `Oc1ccc(CCc2cc(O)cc(O)c2)cc1` [DIHYDRORESVERATROL], the inhibition [1] is reported as 1.2%, the fold change (FC) [2] is reported as 1.2 and the EC50 [3] is reported as greater than 30 µM. The IC50 [4] was greater than 30 µM and the “fold change (FC)” value [5] was 0.4.

With `CCCOc1ccc(/C=C/c2cc(O)cc(O)c2)cc1` the fold change (FC) [2] was 0.1 and the “fold change (FC)” value [5] was 0.3.

`Oc1cc(O)cc(/C=C/c2cc(Br)c(O)c(Br)c2)c1` was tested, and the fold change (FC) [2] was 0.8 and the “fold change (FC)” value [5] was 0.3.

`COCOc1ccc(/C=C/c2cc(OCOC)cc(OCOC)c2)cc1` was tested, and the fold change (FC) [2] was 0.4 and the “fold change (FC)” value [5] was 0.5.

In the case of `COc1ccc(/C=C/c2cc(O)cc(O)c2)cc1` [RESVERATROL 4'-METHYL ETHER], the fold change (FC) [2] is reported as 0.3 and the “fold change (FC)” value [5] is reported as 0.3.

`Clc1ccc(/C=C/c2cc(Cl)cc(Cl)c2)cc1` showed an inhibition [1] of 7.2%, a fold change (FC) [2] of 0.8 and an EC50 [3] greater than 30 µM. For the same compound, the IC50 [4] was greater than 30 µM, the “fold change (FC)” value [5] was 0.3 and the inhibition [17] was 3%. For the same compound, the inhibition [6] was 20.6%.

`Oc1cccc(/C=C/c2cc(O)cc(O)c2)c1` gave a fold change (FC) [2] of 0.8, an EC50 [3] greater than 30 µM and an IC50 [4] greater than 30 µM. The “fold change (FC)” value [5] was 0.4 and the inhibition [6] was 1.4%.

With `CCOc1ccc(/C=C/c2cc(OCC)cc(OCC)c2)cc1` the fold change (FC) [2] was 0.4 and the “fold change (FC)” value [5] was 0.4.

`CCOc1ccc(/C=C/c2cc(O)cc(O)c2)cc1` was tested, and the fold change (FC) [2] was -0.2 and the “fold change (FC)” value [5] was 0.3.

`COc1ccc(NC(=O)c2cc(O)cc(O)c2)cc1` was tested, and the inhibition [1] was -8.2%, the fold change (FC) [2] was -0.4 and the EC50 [3] was greater than 30 µM. The IC50 [4] was greater than 30 µM, the “fold change (FC)” value [5] was 0.3 and the inhibition [17] was -5.9%. The inhibition [6] was 11.8%.
